Experiments:
[1] = test system: MDA-MB-231 cells; experiment: Cell viability WST-1 assay, MDA-MB-231; format: cell-based; conditions: Homo sapiens, WST-1, 24 h; for viability at 3000 µM: MDA-MB-231, 24 h, 3000 µmol/L, read-out: percentage of viability of MDA-MB-231 cells
Method: The viability of MCF-7 and MDA-MB-231 cells was determined using a colorimetric WST-1 assay (Takara, Takara Bio Europe, Saint-Germain-en-Laye, France). Both cell lines were seeded at a density of 1 × 10^4 per well on 96-well plates and were cultured for 24 h to obtain 70% confluence. The following day, the cells were treated with various concentrations of compounds 1–9 diluted in the cell culture medium ([…]). The cells were incubated with tested compounds or pure medium (control) for 24 h (37 °C, 5% CO2). Afterwards, the cells were washed with 100 μL of culture medium, and then, the reagent dissolved in the medium was added (100 μL). The plates were incubated at the standard condition for 1.5 h, and the absorbance was read at 450 nm using a microplate reader (iMARK, Bio-Rad, Bio-Rad Laboratories Inc., Hercules, CA, USA). […] The results of samples treated with the test compounds were expressed as a percentage of the control samples. The data were presented as mean ± standard deviation (SD), n = 8. IC50 values (the concentration of the tested compound that inhibited cell growth by 50%) were calculated using a concentration-response curve (GraphPad Prism, Software, San Diego, CA, USA).
The concentrations contributing to the 50% of cell growth inhibition (IC50) were calculated using nonlinear regression analysis (fitting the curve to log (concentration) vs. cellular response).

[2] = test system: MDA-MB-231 cells; experiment: Annexin V-FITC/PI apoptosis assay, MDA-MB-231; format: cell-based, human; conditions: for Early Apoptotic [E+−] / Late Apoptotic [E++] / Living Cells [E−−] / Necrotic Cells [E−+] / Single Cells in Gate B: MDA-MB-231, 24 h
Method: MCF-7 and MDA-MB-231 cells were seeded at a density of 5 × 10^4 per well on 24-well plates and incubated for 24 h (37 °C, 5% CO2) to obtain 70 % confluency. Then, the medium (control) or medium with the tested compounds in a volume of 250 μL was added and incubated for another 24 h. The cells were harvested using accutase (Sigma Aldrich, St. Louis, MO, USA) as a detaching reagent, collected to Eppendorf tubes and centrifuged (1100 rpm, 5 min). Afterwards, the cells were resuspended in 1 mL of a cold cell-staining buffer (Biolegend, London UK) and washed twice with a cell-staining buffer. The final step included suspension of the cell pellets in 100 μL of a binding buffer, staining with propidine iodide (PI; 10 μL) and FITC-annexin solutions (AV; 5 μL) (FITC Annexin V Apoptosis Detection Kit with PI (Biolegend, UK)). The samples were incubated for 20 min at room temperature in the dark, followed by an analysis conducted on a cytometer (CytoFlex, blue laser, 480 nm, Beckman-Coulter, Indianapolis, IN, USA). The results were analyzed using Kaluza 2.1 (Beckman-Coulter) software.
Annexin V (−) and PI (−) cells were considered living cells, annexin V (+) and PI (−) as early-apoptotic cells, annexin V (+) and PI (+) as late-apoptotic cells and annexin V (−) and PI (+) as necrotic cells.
The experiments were conducted in triplicates (n = 3). The coefficients of variation for the assay were determined (CV = 0.97–13.62%, depending on the calculated cell population).

[3] = test system: MCF-7 cells; experiment: Cell cycle analysis (PI, flow cytometry), MCF-7; format: cell-based, human; conditions: MCF-7, 24 h
Method: (§1) MCF-7 and MDA-MB-231 cells were seeded in 6-well plates at a density of 2 × 10^5 cells per well and cultured for 24 h under standard conditions (with 2 mL of the medium). Next, cells were exposed to the tested compounds at concentrations corresponding to IC50. After 24 h of treatment, control and treated cells were then collected (washed with cold PBS and treated with accutase), transferred to Eppendorf tubes and centrifuged (1100 rpm, 5 min, 5 °C). The supernatant was discarded, cold PBS was added (1 mL) and the cells were centrifuged (1200 rpm, 5 min). The solution was removed, and the cells were fixed in cold 70% ethanol at 4 °C. Prior to the analysis, the cells were centrifuged (3600 rpm, 5 min) and washed twice with PBS. The solution was discarded, the pellets were suspended in 200 µL of PBS and incubated with ribonuclease at 37 °C (25 µL, final concentration in a sample was 100 µg/mL) for 30 min and stained with propidine iodide (12.5 µL, final concentration in a sample was 50 µg/mL) in darkness at room temperature for additional 20 min. The final volume of the sample was 250 µL.
(§2) DNA content and the number of cells in individual cell cycle phases was measured by flow cytometry (CytoFlex, blue laser, 480 nm, Beckman-Coulter, Indianapolis, IN, USA). Cells (20,000) were analyzed from each sample. The percentage of cells in each cell cycle phase was calculated from live cells that were expressed as 100%. The data are presented as the mean ± SD of three independent experiments. The coefficients of variation for the assay were established (CV = 0.37–11.78%, depending on the cell population).

[4] = test system: MDA-MB-231 cells; experiment: Cell cycle analysis (PI, flow cytometry), MDA-MB-231; format: cell-based, human; conditions: MDA-MB-231, 24 h, 2600 µmol/L (IC50 value)
Method: as §1, §2

[5] = Comp. 1 and 4 1500 μmol/L, Comp. 7 1300 μmol/L (½ × IC50)
[6] = Comp. 1 and 4 3000 μmol/L, Comp. 7 2600 (IC50)
[7] = IC50 (Comp. 1 13, Comp. 4 430, Comp. 7 55 μmol/L)
[8] = MDA-MB-231, 3000 uM, representative cytogram Figure 7B

Compound | viability at 3000 µM [1] [%] | Early Apoptotic [E+−] [2, 5] [%] | Late Apoptotic [E++] [2, 5] [%] | Living Cells [E−−] [2, 5] [%] | Necrotic Cells [E−+] [2, 5] [%] | Single Cells in Gate B [2, 5] [%] | Early Apoptotic [E+−] [2, 6] [%] | Late Apoptotic [E++] [2, 6] [%] | Living Cells [E−−] [2, 6] [%] | Necrotic Cells [E−+] [2, 6] [%] | Single Cells in Gate B [2, 6] [%] | G0/G1 [3, 7] [%] | G2/M [3, 7] [%] | S [3, 7] [%] | Sub G0/G1 [3, 7] [%] | other results
CN(C)C(=N)N=C(N)NS(=O)(=O)c1ccccc1Cl [Compound 1] | ~60 | 7.66 ± 0.06 | 8.06 ± 0.81 | 81.55 ± 1.65 | 2.74 ± 0.98 | 94.34 ± 0.26 | 9.96 ± 0.92 | 31.41 ± 3.46 | 53.83 | 4.81 ± 0.60 | 91.85 ± 0.37 | 38.76 ± 0.80 | 17.54 ± 0.48 | 35.45 ± 0.23 | 8.28 ± 1.04 | Living Cells [E−−] ([2]; Comp. 1 and 4 1500 μmol/L, Comp. 7 1300 μmol/L (½ × IC50), listed as Comp. 1): 81.55 ± 1.65 %; Living Cells [E−−] ([2]; Comp. 1 and 4 3000 μmol/L, Comp. 7 2600 (IC50), listed as Comp. 1): 53.83 ± 3.87 %; G0/G1 ([3]; IC50 (Comp. 1 13, Comp. 4 430, Comp. 7 55 µmol/L), listed as Comp. 1): 38.76 ± 0.80 %
CN(C)C(=N)N=C(N)NS(=O)(=O)c1ccccc1Br [Compound 4] | ~56.4 | 7.74 ± 0.91 | 13.30 ± 0.66 | 72.64 ± 1.76 | 6.31 ± 0.26 | 93.37 ± 0.34 | 6.85 ± 0.34 | 36.51 ± 3.36 | 49.49 ± 2.31 | 7.15 ± 1.45 | 90.59 ± 0.70 | 73.69 ± 0.26 | 8.21 ± 0.03 | 15.16 ± 0.54 | 2.98 ± 0.40 | Early apoptosis (representative cytogram) [2, 8]: 6.91%; Late apoptosis (representative cytogram) [2, 8]: 34.48%; Live cells (representative cytogram) [2, 8]: 51.21%; Necrotic cells (representative cytogram) [2, 8]: 7.40%
CN(C)C(=N)N=C(N)NS(=O)(=O)c1ccccc1F [Compound 7] |  | 8.78 ± 0.63 | 18.89 ± 2.67 | 68.26 ± 3.51 | 4.06 ± 1.75 | 93.75 ± 0.41 | 6.39 ± 0.16 | 35.54 ± 2.67 | 50.40 ± 4.95 | 7.66 ± 2.93 | 91.60 ± 0.48 | 56.48 ± 3.34 | 15.43 ± 0.93 | 10.34 ± 0.74 | 17.85 ± 2.08 | IC50 ([1]; MDA-MB-231, mean ± SD (n = 6–8), read-out: IC50 inhibition of MDA-MB-231 cells' viability): 2.59 ± 0.15 mM; G0/G1 [4]: 64.31 ± 1.13 %; G2/M [4]: 12.24 ± 0.10 %; S [4]: 19.99 ± 0.97 %; Sub G0/G1 [4]: 3.41 ± 0.08 %
